How the values were obtained:
[1] = system: chondrosarcoma tumour spheres (SW1353); test: Small molecule treatment of chondrosarcoma tumour spheres, nuclei counted by DAPI staining; type: cell-based, human; settings: bone 3D tumour spheres; for cancer cell number in comparison with Control 1: 72 hours, Control 1 = 0.1% DMSO
Procedure: (§1) SW1353 (chondrosarcoma) cells were cultured in 1:1 DMEM/F-12 Supplement (Thermo Fisher Scientific) containing 10% (volume/volume) fetal bovine serum (Sigma Aldrich). Cells were fed with culture medium every other day and maintained at 37° C. in a […] atmosphere of 5% CO2. Cells were obtained from ATCC and authenticated by STR profiling. Cells were regularly monitored for Mycoplasma infection by PCR. Phenotypic checks for interleukin 1 response ensured cell phenotype was maintained.
For the experiment reported in FIG. 8(b) the culture medium additionally contained 1% (v/v) penicillin streptomycin.
(§2) Tumour spheres were constructed as previously described (Greco, K. V. et al. High density micromass cultures of a human chondrocyte cell line: a reliable assay system to reveal the modulatory functions of pharmacological agents. Biochem Pharmacol 82, 1919-29 (2011), the contents of which are incorporated herein by reference). Briefly, 80% confluent monolayer cell cultures were released by trypsin-EDTA and resuspended in growth medium at a density of 4.1×10^4 cells/mL. Tumour spheres were achieved by pipetting 20 μL of cell suspension into individual wells of 24 well plates. Following a 3 hour intermolecular cohesion period 500 μL of growth medium was gently added. Cultures formed three dimensional spheres over the next 24 hours.
Growth media on chondrosarcoma tumour spheres was replaced with fresh media containing 0.1% DMSO (control 1), fresh media containing 0.2% DMSO (control 2), fresh media containing 50 μM small molecule 3-(N-(3,4-dichlorophenyl)carbamoyl)-5-norbornene-2-carboxylic acid, also named 3-{[(3,4-dichlorophenyl)amino]carbonyl}bicyclo[2.2.1]hept-5-ene-2-carboxylic acid, known as CADD522, fresh media containing 100 μM small molecule (CADD522). […] DAPI fluorescence was excited at 365 nm and emission collected between 420 and 470 nm. Nuclear DAPI staining was segmented with the number of the nuclei quantified using ImageJ. […] Statistical significance ([…]) was calculated using an unpaired t test with Prism 6.

RUNX2 = test: qPCR transcriptional profiling of transfected tumour spheres: RUNX2; type: cell-based, human; settings: 50 nM mimic, pooled RNA of 6 replicates, normalised to ACTB, compared to control tissue
Procedure: (§3) Once tumour spheres had formed, tRF mimics (RNA), tRF inhibitors (LNA), miRNA mimics (LNA) and miRNA inhibitors (LNA) (Exiqon) were transfected using Lipofectamine 3000 (Thermo Fisher Scientific) in reduced serum media (Thermo Fisher Scientific) for a final concentration of 50 nM consisting of equal parts of each mimic or inhibitor (sequences in Table 1 above). Confirmation of cell entry at 50 nM concentration was determined after performing the transfection with FAM labelled sequences. After 6 hours of incubation reduced serum media containing mimics or inhibitors was replaced with fresh growth media. Tumour spheres were subjected to histology, fluorescence microscopy and transcriptional profiling 48 hours later. Transfections were performed in triplicate in 3 independent experiments.
(§4) We used qPCR as previously described (Fricke, C., Green, D., Smith, D., Dalmay, T. & Chapman, T. MicroRNAs influence reproductive responses by females to male sex peptide in Drosophila melanogaster. Genetics 198, 1603-19 (2014), the contents of which are incorporated herein by reference). Due to a limited amount of RNA, qPCR was performed on pools of control tissue, low grade, intermediate grade and high grade tumours. We also extracted and pooled RNA from 6 replicates of tumour spheres treated with a tRF-Gly-TCC mimic. […]

YBX1 [2] = target: YBX1 (Homo sapiens, UniProt P67809); settings: Goodarzi et al., Cell 161, 790-802 (2015); cited from earlier work
YBX1 (Homo sapiens, UniProt P67809), sequence (P67809 whole entry): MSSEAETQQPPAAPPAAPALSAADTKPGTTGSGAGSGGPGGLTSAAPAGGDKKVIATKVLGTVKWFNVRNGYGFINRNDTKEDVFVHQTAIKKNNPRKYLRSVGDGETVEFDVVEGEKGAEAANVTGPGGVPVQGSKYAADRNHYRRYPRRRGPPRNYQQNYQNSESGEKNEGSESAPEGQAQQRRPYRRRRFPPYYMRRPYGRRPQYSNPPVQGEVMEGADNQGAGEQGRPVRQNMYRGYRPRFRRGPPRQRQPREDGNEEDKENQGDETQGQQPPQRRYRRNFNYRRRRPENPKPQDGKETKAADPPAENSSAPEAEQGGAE

YBX1 [3] = test: qPCR transcriptional profiling of transfected tumour spheres: YBX1; type: cell-based, human; settings: 50 nM mimic, pooled RNA of 6 replicates, normalised to ACTB
Procedure: as §3, §4

PTHLH = test: qPCR transcriptional profiling of transfected tumour spheres: PTHLH; type: cell-based, human; settings: 50 nM mimic, pooled RNA of 6 replicates, normalised to ACTB
Procedure: as §3, §4

ANG = test: qPCR transcriptional profiling of transfected tumour spheres: ANG; type: cell-based, human; settings: 50 nM mimic, pooled RNA of 6 replicates, normalised to ACTB
Procedure: as §3, §4

IHH = test: qPCR transcriptional profiling of transfected tumour spheres: IHH; type: cell-based, human; settings: 50 nM mimic, pooled RNA of 6 replicates, normalised to ACTB
Procedure: as §3, §4

TP53 = test: qPCR transcriptional profiling of transfected tumour spheres: TP53; type: cell-based, human; settings: 50 nM mimic, pooled RNA of 6 replicates, normalised to ACTB, compared to control tissues
Procedure: as §3, §4

HDAC4 = test: qPCR transcriptional profiling of transfected tumour spheres: HDAC4; type: cell-based, human; settings: 50 nM mimic, pooled RNA of 6 replicates, normalised to ACTB, compared to high grade tumours
Procedure: as §3, §4

[4] = system: chondrosarcoma tumour spheres (SW1353); test: Tumour sphere assay with LNA and RNA transfection, histology and fluorescence microscopy; type: cell-based, human; settings: 50 nM, 48 hours after transfection
Procedure: as §1
as §2, with “Following a 3 hour intermolecular cohesion period 500 μL of growth medium was gently added. Cultures formed three dimensional spheres over the next 24 hours.” left out
as §3, with “After 6 hours of incubation reduced serum media containing mimics or inhibitors was replaced with fresh growth media.” left out, “Transfections were performed in triplicate in 3 independent experiments.” left out
Tumour spheres were fixed in 3.7% formaldehyde and treated with 0.2% Triton-X 100. […] DAPI fluorescence was excited at 365 nm and emission collected between 420 and 470 nm. Texas Red-X Phalloidin fluorescence was excited at 558 nm and emission collected through a 615 nm LP filter. Nuclear DAPI staining was segmented with the number and size of the nuclei quantified using ImageJ.

SOX9 = test: qPCR transcriptional profiling of transfected tumour spheres: SOX9; type: cell-based, human; settings: 50 nM mimic, pooled RNA of 6 replicates, normalised to ACTB, compared to control tissue
Procedure: as §3, §4

| Compound | cancer cell number in comparison with Control 1 ([1]; 50 μM) | cancer cell number in comparison with Control 1 ([1]; 100 μM) | cancer cell number compared to controls ([1]; two biological replicate controls, unpaired t test) | RUNX2 mean relative expression (RUNX2) | binding to YBX1 (YBX1 [2]) | YBX1 mean relative expression (YBX1 [3]) | PTHLP expression (PTHLH) | ANG mean relative expression (ANG) | IHH mean relative expression (IHH) | TP53 mean relative expression (TP53) | HDAC4 mean relative expression (HDAC4) | decrease in nuclear area compared to untreated tumour spheres [4] | phenotypic effect (nuclear and F-actin histology, inverted microscopy) [4] | nuclear area of tumour spheres ([4]; n=47 nuclei, untreated 488±12.4 μm^2 (n=230)) [μm^2] | SOX9 mean relative expression (SOX9) |
| --- | --- | --- | --- | --- | --- | --- | --- | --- | --- | --- | --- | --- | --- | --- | --- |
| O=C(O)C1C2C=CC(C2)C1C(=O)Nc1ccc(Cl)c(Cl)c1 (stereo not shown) [CADD522, 3-(N-(3,4-dichlorophenyl)carbamoyl)-5-norbornene-2-carboxylic acid] | about 70% | about 30% | significant reduction of cancer cell number |  |  |  |  |  |  |  |  |  |  |  |  |
| TRF-Gly-TCC: endogenous tRNA derived fragment containing a SCUBYC sequence motif (GCGUUGGUGGUAUAGUGGUGAGCAUAGCUGCC; listed as RNA, chemistry not fully specified) |  |  |  | reduces RUNX2 expression to control levels | substantial binding | increased expression |  |  |  |  |  |  |  |  |  |
| tRF-Gly-TCC mimic: RNA mimic, sequence GCGUUGGUGGUAUAGUGGUGAGCAUAGCUGCC (listed as RNA, chemistry not given here) |  |  |  | reduced to the same level of expression as control tissue |  |  | lost | greatly reduced | greatly reduced | reduces to be consistent with control tissues | increases further | more than two-fold decrease in nuclear area | low cancer cell number, shrunken nuclei and visible changes to morphology | 215±16.8 | remains at a reduced expression |
